Laboratory results taken from patent US3985875A, “ω-(N-acylamino)alkylphosphoryl ethanolamines, pharmaceutical compositions containing them, and their uses” (Dainippon Pharmaceutical Co., Ltd., priority 1974, dated 1976).
Where two headings read alike, the source gives them in different places.

How the values were obtained:
High renin plasma = biological target: T1, High renin plasma (Canis lupus familiaris, UniProt Q6DYE7); experiment: Renin-inhibitory activity, Method II (high renin plasma of dog, inhibition of Angiotensin I formation); assay type: biochemical; details: Table 2; 37°C, 4 hours, 1.25 mg/ml; read-out: Rate of inhibiting the formation of Angiotensin I determined by Method II
T1 construct: High renin plasma prepared by constriction of the renal artery of a dog anesthetized with Nembutal; from tissue; host or cells: plasma of a dog with constricted renal artery
T1 sequence (Q6DYE7 66-403): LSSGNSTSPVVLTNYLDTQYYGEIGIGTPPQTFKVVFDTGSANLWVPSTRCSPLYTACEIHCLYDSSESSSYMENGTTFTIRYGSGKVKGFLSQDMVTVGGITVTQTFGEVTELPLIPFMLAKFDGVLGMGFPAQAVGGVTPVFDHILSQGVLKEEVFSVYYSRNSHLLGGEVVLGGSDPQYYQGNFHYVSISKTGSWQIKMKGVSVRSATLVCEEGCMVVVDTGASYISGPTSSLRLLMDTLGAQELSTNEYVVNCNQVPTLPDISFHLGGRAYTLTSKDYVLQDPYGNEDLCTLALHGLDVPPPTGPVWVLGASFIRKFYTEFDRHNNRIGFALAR
Description: High renin plasma prepared by constriction of the renal artery of a dog anesthetized with Nembutal (the plasma which when incubated at 37°40 C. for 6 hours, yields 30 to […]. of Angiotensin I) was incubated at 37° C. for 2 to 6 hours in the same way as in Method I, and also under the same conditions in the presence of 1.25 mg/ml. of each of the test compounds.
(§1) The results are shown in Table 1 (the rate of inhibiting the formation of Angiotensin I, as determined by Method I, when the plasma was incubated at 37° C. for 2, 4 and 6 hours respectively), and Table 2 (the rate of inhibiting the formation of Angiotensin I when the plasma was incubated at 37° C. for 4 hours, with the compound concentration of 1.25 mg/ml.)

renal hypertensive rats [1] = experiment: Antihypertensive activity in rats, p.o. (Table 4); assay type: in vivo, rat; details: 100 mg/kg/day p.o.
Description: (§2) An aqueous solution or suspension in peanut oil of each test compound as administered intramuscularly (i.m.) or orally (p.o.) at a dose of 30 to 100 mg/kg (body weight)/day once every morning over the period of 6 to 7 days.
(§3) The blood pressure of each rat was measured daily before and 5 hours after each administration. Furthermore, the blood pressure was measured every morning after drug withdrawal over a period of 3 to 6 days.
(§4) Test compounds (1)-(4) decreased the blood pressure of renal hypertensive rats with a dose of 30 mg/kg/day i.m.. […] The antihypertensive rats with a dose of 100 mg/kg/day p.o..

plasma cholesterol level = experiment: Cholesterol-lowering activity in rats (modified Greenberg method); assay type: in vivo, rat; details: 100 mg/Kg oral once a day, 5 consecutive days
Description: The effect of each of the test compounds on the plasma cholesterol level was examined in rats according to a slightly modified form of the C. M. Greenberg et al. method described in Am. J. Physiol., Vol. 202 (1961), p. 732. Rats were treated once a day with a 100 mg/Kg oral dose for 5 consecutive days instead of 7 days.

Renin = biological target: T2, Renin (Homo sapiens, UniProt P00797); experiment: Renin-inhibitory activity, Method I (inhibition of Angiotensin I formation, RIA); assay type: biochemical; details: for inhibition at 313 µg/mL: 0.313 mg/ml; for inhibition at 625 µg/mL: 0.625 mg/ml; for inhibition at 1250 µg/mL: 1.25 mg/ml; for inhibition at 2500 µg/mL: 2.5 mg/ml
T2 sequence (P00797 67-406): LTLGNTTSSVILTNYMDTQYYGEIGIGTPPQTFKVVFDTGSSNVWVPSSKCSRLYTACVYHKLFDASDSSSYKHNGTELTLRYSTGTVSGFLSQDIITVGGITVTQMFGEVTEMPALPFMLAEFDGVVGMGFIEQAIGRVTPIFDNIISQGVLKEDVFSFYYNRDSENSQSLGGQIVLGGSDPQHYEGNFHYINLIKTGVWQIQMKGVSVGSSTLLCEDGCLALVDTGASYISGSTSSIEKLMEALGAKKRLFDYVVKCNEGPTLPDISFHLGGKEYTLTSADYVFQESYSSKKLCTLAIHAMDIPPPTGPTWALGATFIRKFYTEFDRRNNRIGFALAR
Description: Renin (see E. Haas et al. Circulation Research, Vol. 19, p. 739, 1966 and Vol. 31, p. 65, 1972) was incubated in Angiotensinogen at 37° C. for 2 to 6 hours. Similarly, renin was incubated under the same conditions in the presence of 0.313 to 2.5 mg/ml. of each of the test compounds listed above. The amount of Angiotensin I was measured by radioimmunoassay (RIA) (E. Haber et al., J. Clin. Endocrinol., Vol. 29, p. 1349, 1969), and made the renin activity.
as §1

renal hypertensive rats [2] = experiment: Antihypertensive activity in renal hypertensive rats, i.m. (Table 3); assay type: in vivo, rat; details: 30 mg/kg/day i.m.
Description: as §2, §3, §4

[3] = 1st day, 0 h (immediately before administration)
[4] = 1st day, 5 hours after administration
[5] = 2nd day, 5 hours after administration
[6] = 3rd day, 0 h (immediately before administration)
[7] = 3rd day, 5 hours after administration
[8] = 4th day, 0 h (immediately before administration)
[9] = 4th day, 5 hours after administration
[10] = 5th day, 0 h (immediately before administration)
[11] = 5th day, 5 hours after administration
[12] = 6th day, 0 h (immediately before administration)
[13] = 6th day, 5 hours after administration
[14] = incubating time 2 hours, read-out: Rate of inhibiting the formation of Angiotensin I
[15] = incubating time 4 hours, read-out: Rate of inhibiting the formation of Angiotensin I
[16] = incubating time 6 hours, read-out: Rate of inhibiting the formation of Angiotensin I
[17] = Table 2, 37°C, 4 hours, read-out: Rate of inhibiting the formation of Angiotensin I determined by Method I
[18] = 2nd day, 0 h (immediately before administration)

Row | SMILES | inhibition at 1250 µg/mL (High renin plasma) [%] | inhibition at 313 µg/mL (Renin; [14]) [%] | inhibition at 313 µg/mL (Renin; [15]) [%] | inhibition at 313 µg/mL (Renin; [16]) [%] | inhibition at 625 µg/mL (Renin; [14]) [%] | inhibition at 625 µg/mL (Renin; [15]) [%] | inhibition at 625 µg/mL (Renin; [16]) [%] | inhibition at 1250 µg/mL (Renin; [14]) [%] | inhibition at 1250 µg/mL (Renin; [15]) [%] | inhibition at 1250 µg/mL (Renin; [16]) [%] | inhibition at 2500 µg/mL (Renin; [14]) [%] | inhibition at 2500 µg/mL (Renin; [15]) [%] | inhibition at 2500 µg/mL (Renin; [16]) [%] | inhibition at 1250 µg/mL (Renin; [17]) [%] | Changes of blood pressure after drug withdrawal (renal hypertensive rats [2]; 1st day after withdrawal) [mmHg] | Changes of blood pressure (renal hypertensive rats [2]; [3]) [mmHg] | Changes of blood pressure (renal hypertensive rats [2]; [4]) [mmHg] | Changes of blood pressure after drug withdrawal (renal hypertensive rats [2]; 2nd day after withdrawal) [mmHg] | Changes of blood pressure (renal hypertensive rats [2]; [18]) [mmHg] | Changes of blood pressure (renal hypertensive rats [2]; [5]) [mmHg] | other results
1 | NCCOP(=O)(O)OCCNC(=O)COc1ccc(Oc2ccc(Cl)cc2)cc1 [Compound (5), 2-[4-(4'-chlorophenoxy)phenoxyacetylamino]ethylphosphoryl ethanolamine] | 56 | 0 | 33 | 40 | 50 | 50 | 53 | 75 | 80 | 80 | 100 | 93 | 92 | 78 |  |  |  |  |  |  | Changes of blood pressure after drug withdrawal (renal hypertensive rats [1]; 1st day after withdrawal): -49 mmHg; Changes of blood pressure (renal hypertensive rats [1]; [3]): 0 mmHg; Changes of blood pressure (renal hypertensive rats [1]; [4]): +1 mmHg; Changes of blood pressure after drug withdrawal (renal hypertensive rats [1]; 2nd day after withdrawal): -34 mmHg; Changes of blood pressure (renal hypertensive rats [1]; [5]): -9 mmHg; Changes of blood pressure after drug withdrawal (renal hypertensive rats [1]; 3rd day after withdrawal): -26 mmHg; Changes of blood pressure (renal hypertensive rats [1]; [6]): -17 mmHg; Changes of blood pressure (renal hypertensive rats [1]; [7]): -44 mmHg; Changes of blood pressure after drug withdrawal (renal hypertensive rats [1]; 4th day after withdrawal): -21 mmHg; Changes of blood pressure (renal hypertensive rats [1]; [8]): -21 mmHg; Changes of blood pressure (renal hypertensive rats [1]; [9]): -41 mmHg; Changes of blood pressure after drug withdrawal (renal hypertensive rats [1]; 5th day after withdrawal): -15 mmHg; Changes of blood pressure (renal hypertensive rats [1]; [10]): -34 mmHg; Changes of blood pressure (renal hypertensive rats [1]; [11]): -43 mmHg; Changes of blood pressure after drug withdrawal (renal hypertensive rats [1]; 6th day after withdrawal): -7 mmHg; Changes of blood pressure (renal hypertensive rats [1]; [12]): -37 mmHg; Changes of blood pressure (renal hypertensive rats [1]; [13]): -49 mmHg; Changes of blood pressure (renal hypertensive rats [1]; 7th day, 0 h (immediately before administration)): -40 mmHg; Changes of blood pressure (renal hypertensive rats [1]; 7th day, 5 hours after administration): -49 mmHg; Cholesterol-lowering activity (plasma cholesterol level): 48.6%
2 | CCCCCC=CCC=CCCCCCCCC(=O)NCCOP(=O)(O)OCCN [(3), 2-(Octadeca-9,12-dienoylamino)ethylphosphoryl ethanolamine] | 21 |  |  |  |  |  |  |  |  |  |  |  |  | 25 | -39 | 0 | -12 | -8 | -1 | -9 | Changes of blood pressure after drug withdrawal (renal hypertensive rats [2]; 3rd day after withdrawal): -1 mmHg; Changes of blood pressure (renal hypertensive rats [2]; [6]): -8 mmHg; Changes of blood pressure (renal hypertensive rats [2]; [7]): -17 mmHg; Changes of blood pressure (renal hypertensive rats [2]; [8]): -23 mmHg; Changes of blood pressure (renal hypertensive rats [2]; [9]): -38 mmHg; Changes of blood pressure (renal hypertensive rats [2]; [10]): -27 mmHg; Changes of blood pressure (renal hypertensive rats [2]; [11]): -39 mmHg; Changes of blood pressure (renal hypertensive rats [2]; [12]): -35 mmHg; Changes of blood pressure (renal hypertensive rats [2]; [13]): -48 mmHg
3 | CCC=CCC=CCC=CCCCCCCCC(=O)NCCCOP(=O)(O)OCCN [Compound (2), 3-(Octadeca-9,12,15-trienoylamino)propylphosphoryl ethanolamine] | 59 | 25 | 27 | 22 | 50 | 45 | 47 | 75 | 78 | 80 | 93 | 100 | 100 | 78 | -34 | 0 | -17 | -21 | -1 | -26 | Changes of blood pressure after drug withdrawal (renal hypertensive rats [2]; 3rd day after withdrawal): -7 mmHg; Changes of blood pressure (renal hypertensive rats [2]; [6]): -20 mmHg; Changes of blood pressure (renal hypertensive rats [2]; [7]): -31 mmHg; Changes of blood pressure (renal hypertensive rats [2]; [8]): -22 mmHg; Changes of blood pressure (renal hypertensive rats [2]; [9]): -34 mmHg; Changes of blood pressure (renal hypertensive rats [2]; [10]): -23 mmHg; Changes of blood pressure (renal hypertensive rats [2]; [11]): -39 mmHg; Changes of blood pressure (renal hypertensive rats [2]; [12]): -29 mmHg; Changes of blood pressure (renal hypertensive rats [2]; [13]): -44 mmHg
